Laboratory results as given in the CheMixHub viscosity set.

Assay: xn = mol fraction of the nth substance listed

O=[N+]([O-])c1ccccc1 + CC(C)CO
viscosity [mPa·s], 101.33 kPa
Conditions | x1 = 0.063 | x1 = 0.1521 | x1 = 0.2051 | x1 = 0.2864 | x1 = 0.376 | x1 = 0.4746 | x1 = 0.6038 | x1 = 0.7066 | x1 = 0.8442
298.15 K | 2.804 | 2.416 | 2.228 | 2.054 | 1.884 | 1.811 | 1.755 | 1.701 | 1.679
303.15 K | 2.423 | 2.072 | 1.956 | 1.819 | 1.677 | 1.596 | 1.538 | 1.495 | 1.517

CCCCCCCC + CC(C)O
viscosity [mPa·s]
Conditions | 293.15 K | 298.15 K | 303.15 K | 308.15 K
101 kPa, x2 = 0.0569 | – | 0.515 | – | 0.446
101 kPa, x2 = 0.1093 | – | 0.518 | – | 0.45
101 kPa, x2 = 0.1441 | – | 0.524 | – | 0.451
101 kPa, x2 = 0.2343 | – | 0.542 | – | 0.466
101 kPa, x2 = 0.3228 | – | 0.568 | – | 0.486
101 kPa, x2 = 0.3517 | – | 0.579 | – | 0.497
101 kPa, x2 = 0.4196 | – | 0.611 | – | 0.523
101 kPa, x2 = 0.5016 | – | 0.665 | – | 0.561
101 kPa, x2 = 0.5603 | – | 0.717 | – | 0.601
101 kPa, x2 = 0.6122 | – | 0.773 | – | 0.643
101 kPa, x2 = 0.7012 | – | 0.9 | – | 0.732
101 kPa, x2 = 0.7937 | – | 1.088 | – | 0.877
101 kPa, x2 = 0.9122 | – | 1.496 | – | 1.177
101 kPa, x2 = 0.9475 | – | 1.68 | – | 1.315
101.32 kPa, x2 = 0.0518 | 0.539 | 0.507 | 0.476 | –
101.32 kPa, x2 = 0.0896 | 0.542 | 0.51 | 0.479 | –
101.32 kPa, x2 = 0.212 | 0.562 | 0.526 | 0.494 | –
101.32 kPa, x2 = 0.282 | 0.58 | 0.542 | 0.507 | –
101.32 kPa, x2 = 0.4103 | 0.644 | 0.596 | 0.552 | –
101.32 kPa, x2 = 0.6027 | 0.83 | 0.752 | 0.685 | –
101.32 kPa, x2 = 0.6988 | 0.985 | 0.883 | 0.795 | –
101.32 kPa, x2 = 0.7988 | 1.225 | 1.088 | 0.967 | –
101.32 kPa, x2 = 0.9007 | 1.624 | 1.429 | 1.25 | –
101.32 kPa, x2 = 0.9496 | 1.961 | 1.69 | 1.482 | –

O=[N+]([O-])c1ccccc1 + CC(C)O
viscosity [mPa·s]
Conditions | 293.15 K | 298.15 K | 303.15 K | 308.15 K | 313.15 K | 318.15 K | 323.15 K
100 kPa, x1 = 0.081 | 2.112 | 1.849 | 1.625 | 1.428 | 1.247 | 1.101 | 0.9776
100 kPa, x1 = 0.16 | 1.892 | 1.679 | 1.494 | 1.333 | 1.166 | 1.039 | 0.9339
100 kPa, x1 = 0.2401 | 1.742 | 1.56 | 1.402 | 1.264 | 1.111 | 1.003 | 0.9084
100 kPa, x1 = 0.3501 | 1.624 | 1.468 | 1.332 | 1.212 | 1.082 | 0.9879 | 0.9036
100 kPa, x1 = 0.44 | 1.597 | 1.446 | 1.318 | 1.203 | 1.088 | 1.002 | 0.9207
100 kPa, x1 = 0.56 | 1.637 | 1.482 | 1.347 | 1.232 | 1.134 | 1.05 | 0.9715
100 kPa, x1 = 0.6499 | 1.703 | 1.54 | 1.401 | 1.281 | 1.187 | 1.105 | 1.024
100 kPa, x1 = 0.7399 | 1.795 | 1.622 | 1.475 | 1.349 | 1.256 | 1.171 | 1.087
100 kPa, x1 = 0.85 | 1.92 | 1.739 | 1.586 | 1.454 | 1.355 | 1.262 | 1.174
100 kPa, x1 = 0.9399 | 2.022 | 1.842 | 1.685 | 1.55 | 1.442 | 1.342 | 1.25
101.33 kPa, x1 = 0.0512 | – | 1.881 | 1.567 | – | – | – | –
101.33 kPa, x1 = 0.1088 | – | 1.67 | 1.476 | – | – | – | –
101.33 kPa, x1 = 0.1732 | – | 1.529 | 1.344 | – | – | – | –
101.33 kPa, x1 = 0.2456 | – | 1.462 | 1.297 | – | – | – | –
101.33 kPa, x1 = 0.3281 | – | 1.459 | 1.277 | – | – | – | –
101.33 kPa, x1 = 0.4228 | – | 1.45 | 1.292 | – | – | – | –
101.33 kPa, x1 = 0.5325 | – | 1.439 | 1.323 | – | – | – | –
101.33 kPa, x1 = 0.661 | – | 1.523 | 1.398 | – | – | – | –
101.33 kPa, x1 = 0.8145 | – | 1.603 | 1.434 | – | – | – | –

c1ccccc1 + CC(C)O
viscosity [mPa·s], 101 kPa
Conditions | x1 = 0.0575 | x1 = 0.144 | x1 = 0.225 | x1 = 0.362 | x1 = 0.558 | x1 = 0.651 | x1 = 0.732 | x1 = 0.798 | x1 = 0.886
298.15 K | 1.733 | 1.369 | 1.139 | 0.89 | 0.69 | 0.639 | 0.614 | 0.607 | 0.602
303.15 K | 1.512 | 1.206 | 1.015 | 0.8 | 0.643 | 0.593 | 0.572 | 0.565 | 0.561
308.15 K | 1.325 | 1.068 | 0.905 | 0.73 | 0.592 | 0.551 | 0.531 | 0.527 | 0.524
313.15 K | 1.16 | 0.948 | 0.814 | 0.668 | 0.556 | 0.511 | 0.497 | 0.493 | 0.493
318.15 K | 1.026 | 0.852 | 0.732 | 0.616 | 0.518 | 0.475 | 0.465 | 0.463 | 0.461
